Data as given in paper PMC10044120, “Potent and selective covalent inhibition of the papain-like protease from SARS-CoV-2” (Nature Communications, 2023).
Values joined by “and” are separate entries in the source; they are usually repeats but may differ in a detail not shown here. Equal values may be shown once. Read-outs that look alike come from different tables or passages of the source.

Key:
[1] = test system: SARS-CoV-2 USA-WA1/2020; test: CPE assay, neutral red, Vero E6 cells with 2 μM CP-100356, USA-WA1/2020; type: cell-based; details: for Percent Cytopathic Effect (Neutral Red): USA-WA1/2020
[2] = test system: SARS-CoV-2 Delta (B.1.617.2); test: CPE assay, neutral red, Vero E6 cells with 2 μM CP-100356, Delta; type: cell-based; details: Delta (B1.617.2), Vero E6, 2 μM CP-100356
[3] = test system: SARS-CoV-2 USA-WA1/2020; test: microbe, parasite or virus in culture; type: cell-based; details: for Virus Titer: USA-WA1/2020
[4] = test system: SARS-CoV-2 Delta (B.1.617.2); test: microbe, parasite or virus in culture; type: cell-based; details: Delta (B1.617.2), Caco-2
[5] = test system: SARS-CoV-2 Omicron (B.1.1.529); test: microbe, parasite or virus in culture; type: cell-based; details: Omicron (B1.1.529), Caco-2
[6] = test system: Vero E6 cells; details: for Percent Cytotoxicity (Neutral Red): Vero E6
[7] = test system: Caco-2 cells; details: for Percent Cytotoxicity (Neutral Red): Caco-2
[8] = test system: SARS-CoV-2 isolate USA-WA1/2020; details: African green monkey
[9] = test system: Vero E6 cells; details: African green monkey
[10] = test system: HAUSP; details: cited from earlier work
[11] = biological target: deISGylase USP18; details: cited from earlier work
[12] = test system: UCH-L1; details: cited from earlier work
[13] = test system: UCH-L3; details: cited from earlier work
[14] = in vitro; details: African green monkey, cytotoxicity, %cell viability
[15] = test system: SARS-CoV-2 isolate USA-WA1/2020; test: microbe, parasite or virus in culture; details: Severe acute respiratory syndrome coronavirus 2, Vero C1008, read-out: cytopathic effect, % cell viability

## O=c1nc(NO)ccn1[C@@H]1O[C@H](CO)[C@@H](O)[C@H]1O [EIDD-1931]
[1]; USA-WA1/2020, Vero E6, 2 μM CP-100356
  EC50: 300 nM
[1]; 0.1 µg/mL
  Percent Cytopathic Effect (Neutral Red): 95.9%
[1]; 1 µg/mL
  Percent Cytopathic Effect (Neutral Red): 0.0%
[1]; 10 µg/mL
  Percent Cytopathic Effect (Neutral Red): 0.559%
[1]; 100 µg/mL
  Percent Cytopathic Effect (Neutral Red): 0.0%
[2]
  EC50: 310 nM
[3]; USA-WA1/2020, Caco-2
  EC90: 120 nM
[3]; 0.1 µg/mL
  Virus Titer: 3.7 CCID50/mL (Log10)
[3]; 1 µg/mL
  Virus Titer: <0.7 CCID50/mL (Log10)
[3]; 10 µg/mL
  Virus Titer: <0.7 CCID50/mL (Log10)
[3]; 32 µg/mL
  Virus Titer: <0.7 CCID50/mL (Log10)
[3]; 100 µg/mL
  Virus Titer: <0.7 CCID50/mL (Log10)
[4]
  EC90: 4.9 µM
[5]
  EC90: 2900 nM
[6]; Vero E6, 2 μM CP-100356, Delta rows
  CC50: > 100 µM
[6]; Vero E6, 2 μM CP-100356, Omicron rows
  CC50: > 100 µM
[6]; Vero E6, 2 μM CP-100356, USA-WA1/2020 rows
  CC50: > 100 µM
[6]; SARS2-733 (Delta set), 0.1 µg/mL
  Percent Cytotoxicity (Neutral Red): 2.1%
[6]; SARS2-733 (Delta set), 1 µg/mL
  Percent Cytotoxicity (Neutral Red): 5.1%
[6]; SARS2-733 (Delta set), 10 µg/mL
  Percent Cytotoxicity (Neutral Red): 36.7%
[6]; SARS2-733 (Delta set), 100 µg/mL
  Percent Cytotoxicity (Neutral Red): 48.2%
[6]; SARS2-733 (Omicron set), 0.1 µg/mL
  Percent Cytotoxicity (Neutral Red): 0.0%
[6]; SARS2-733 (Omicron set), 1 µg/mL
  Percent Cytotoxicity (Neutral Red): 0.0%
[6]; SARS2-733 (Omicron set), 10 µg/mL
  Percent Cytotoxicity (Neutral Red): 28.4%
[6]; SARS2-733 (Omicron set), 100 µg/mL
  Percent Cytotoxicity (Neutral Red): 45.6%
[6]; SARS2-735, 0.1 µg/mL
  Percent Cytotoxicity (Neutral Red): 0.0%
[6]; SARS2-735, 1 µg/mL
  Percent Cytotoxicity (Neutral Red): 0.0%
[6]; SARS2-735, 10 µg/mL
  Percent Cytotoxicity (Neutral Red): 23.0%
[6]; SARS2-735, 100 µg/mL
  Percent Cytotoxicity (Neutral Red): 38.9%
[7]; Caco-2, Delta rows
  CC50: > 100 µM
[7]; Caco-2, Omicron rows
  CC50: > 100 µM
[7]; Caco-2, USA-WA1/2020 rows
  CC50: 94 µM
[7]; SARS2-740 (Delta set), 0.1 µg/mL
  Percent Cytotoxicity (Neutral Red): 7.9%
[7]; SARS2-740 (Delta set), 1 µg/mL
  Percent Cytotoxicity (Neutral Red): 14.7%
[7]; SARS2-740 (Delta set), 10 µg/mL
  Percent Cytotoxicity (Neutral Red): 5.3%
[7]; SARS2-740 (Delta set), 32 µg/mL
  Percent Cytotoxicity (Neutral Red): 15.2%
[7]; SARS2-740 (Delta set), 100 µg/mL
  Percent Cytotoxicity (Neutral Red): 30.0%
[7]; SARS2-740 (Omicron set), 0.1 µg/mL
  Percent Cytotoxicity (Neutral Red): 0.118%
[7]; SARS2-740 (Omicron set), 1 µg/mL
  Percent Cytotoxicity (Neutral Red): 4.7%
[7]; SARS2-740 (Omicron set), 10 µg/mL
  Percent Cytotoxicity (Neutral Red): 1.2%
[7]; SARS2-740 (Omicron set), 32 µg/mL
  Percent Cytotoxicity (Neutral Red): 6.1%
[7]; SARS2-740 (Omicron set), 100 µg/mL
  Percent Cytotoxicity (Neutral Red): 24.6%
[7]; SARS2-740 (USA-WA1/2020 set), 0.1 µg/mL
  Percent Cytotoxicity (Neutral Red): 15.6%
[7]; SARS2-740 (USA-WA1/2020 set), 1 µg/mL
  Percent Cytotoxicity (Neutral Red): 13.4%
[7]; SARS2-740 (USA-WA1/2020 set), 10 µg/mL
  Percent Cytotoxicity (Neutral Red): 13.8%
[7]; SARS2-740 (USA-WA1/2020 set), 32 µg/mL
  Percent Cytotoxicity (Neutral Red): 17.6%
[7]; SARS2-740 (USA-WA1/2020 set), 100 µg/mL
  Percent Cytotoxicity (Neutral Red): 51.9%

## Cc1ccc(N)cc1C(=O)N[C@H](C)c1cccc2ccccc12 [GRL0617, reference compound]
[8]; 2.08 µM
  inhibition: 8.22%
[8]; 8.33 µM
  inhibition: 3.62%
[9]; 2.08 µM
  cytotoxicity, %cell viability: 100.64%
[9]; 8.33 µM
  cytotoxicity, %cell viability: 100.01%
[9]; 16.65 µM
  cytotoxicity, %cell viability: 87.87%
[10]
  IC50: > 100 µM
[11]
  IC50: > 100 µM
[12]
  IC50: > 100 µM
[13]
  IC50: > 100 µM
[14]
  viability at 2.08 µM: 99.1%
  viability at 8.33 µM: 93.3%
  viability at 16.65 µM: 80.3%
  viability at […]: 104% and 102% and 77.8% and 100%
[15]
  inhibition at 2.08 µM: 15.2%
  inhibition at 8.33 µM: 7.11%
  inhibition at […]: 11.5% and 6.73% and 8.44%
